The results in this text go back to patent US20190369111A1, “MOLECULAR KINETICS EVALUATION METHOD AND SCREENING METHOD” (Tokyo University of Science Foundation, priority 2016, published 2019).

In the test the target is T1, wild-type H-Ras protein (Homo sapiens, UniProt P01112).
T1 construct: an endogenous wild-type K-Ras protein and wild-type H-Ras protein in HeLa cells; endogenous in cells; host or cells: HeLa cells
The experiment in a line: Degradation of endogenous wild-type H-Ras protein in HeLa cells, Western blot analysis. The format is cell-based. The note with it: 48 hours after addition. As to the method:
HeLa cells were seeded in a 24-well plate at a cell density of 8×10^4 cells/well, and then cultured under conditions of 37° C. and 5 vol % CO2 for 16 hours.
After 16 hours from cell seeding, TUS-007 was added to HeLa cells as follows. As a medium, a serum-free medium (37° C.) in which 1 mass % L-glutamine solution (Sigma-Aldrich) was added to D-MEM (high D-glucose, phenol red, sodium pyruvate (Wako Pure Chemical Industries, Ltd.)) was used. It is noted that the L-glutamine solution was added immediately before use. A DMSO solution containing TUS-007 was mixed with the medium so that the concentration of DMSO was 1 vol %, and added to each well at 500 μL/well, and cultured under conditions of 37° C. and 5 vol % CO2. As a control, DMSO was used.
The medium was removed 48 hours after addition of TUS-007, and then PBS was added to wash the cells. […]
After electrophoresis, proteins were transferred to a PVDF membrane (Immobion™-P, Millipore) under conditions of 100 V and 2 hours using a tank-type blotting device and a transfer buffer (25 mM Tris-HCl, 195 mM glycine, 0.01% SDS, 15% methanol). […] Subsequently, the membrane was treated with a chemiluminescence reagent Immobilon™ Western (Millipore), and then chemiluminescence was detected using a lumino image analyzer LAS-3000 (FUJIFILM Corporation). […]

T1 sequence (P01112 whole entry): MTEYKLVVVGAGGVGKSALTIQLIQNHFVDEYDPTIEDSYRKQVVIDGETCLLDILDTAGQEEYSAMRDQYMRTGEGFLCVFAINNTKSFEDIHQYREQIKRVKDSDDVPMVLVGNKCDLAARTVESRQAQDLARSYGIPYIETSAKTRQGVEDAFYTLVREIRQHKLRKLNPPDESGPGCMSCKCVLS

For `CC[C@@H](C)[C@H](NC(=O)CCCCCCNC(=O)[C@H](CC(C)C)NC(=O)CNC(=O)c1cc(Cl)ccc1Cl)C(=O)Nc1ccc2[nH]c(Cc3c[nH]c4ccccc34)nc2c1` [TUS-007], the “amount of endogenous wild-type H-Ras protein” value is “reduced”.
